The record followed here is patent US20260132128A1, “COMPOUND FOR RECOVERING P53 MUTATION FUNCTION AND USE THEREOF” (SHENZHEN ZHONGGE BIOLOGICAL TECHNOLOGY CO., LTD., priority 2022, published 2026).

Marks after values point to notes of the source that are not given here.

Series [1] deals with T1, p53 Y220C (Homo sapiens, UniProt P04637, P309S/R273H/Y220C).
T1 construct: a truncated mutant containing only amino acids 94-312 of p53; made in house; host or cells: E. coli
The experiment in a line: DNA binding test (HTRF): binding of P53Y220C protein to DNA. The conditions noted are these: HTRF, activation of p53 Y220C (aa 94-312) binding to biotin DNA. It counts as biochemical.

Series [2] addresses T2, p53 Y220C (Homo sapiens, UniProt P04637, Y220C).
T2 construct: a truncated mutant containing only amino acids 94-312 of p53; made in house; host or cells: E. coli
The series is described as above. It counts as biochemical. As to conditions: multiple ratio of EC50 of the compound to the reference compound, DNA binding test.

Series [3] is described as follows: Caco-2 cell permeability test. It counts as in vitro ADME. The conditions noted are these: human, pH 7.4, Caco-2, 10 μM; for Papp A→B at 120 min, 10 μM: A to B; for Papp B→A at 120 min, 10 μM: B to A. The protocol:
Caco-2 cells (ATCC, Cat. No. HTB-37) were inoculated to a 96-well plate (Corning HTS Transwell, Cat. No. 3391) at 1.25×10^5/cm2, and the culture medium (DMEM+10% FBS+1% Penicillin-Streptomycin Liquid (100×)+1% NEAA) was replaced every 3 to 4 days. The plate was placed in an incubator at 37° C. with 5% CO2 until a confluent cell monolayer was formed after 21 to 28 days. Before the transport experiment, the culture medium was removed from the cell culture plate, and the plate was washed twice with pre-warmed HBSS buffer (10 mM HEPES, pH 7.4), and 100 μL of HBSS buffer was added to each well. After incubation at 37° C. for 30 minutes, the TEER value was measured using a cell resistance meter (Millicell-ERS2) to confirm the integrity and density of the monolayer cells. The HBSS buffer was discarded, the upper plate containing the cell monolayer membrane was transferred to the corresponding receiving plate, 10 mM test compound stock solution was diluted to a concentration of 10 μM with HBSS transport buffer containing 0.5% BSA, and it was added to the apical side (A side) and basolateral side (B side), respectively. Incubation was carried out for 120 min at 37° C., 5% CO2, and 95% relative humidity, and the permeation of the test compound from A side to B side or from B side to A side and the efflux rate of the compound were determined. The test compound and the reference compound were quantified by LC-MS/MS analysis based on the peak area ratio of analyte/internal standard. The apparent permeability coefficient Papp (cm/s) was calculated using the following formula:
[formula] • wherein, dCr/dt represented the functional relation between cumulative concentration of compound in receptor compartment and time; V represented the volume of solution in receptor compartment (0.1 mL at apical side, and 0.25 mL at basolateral side); A represented the transport surface area, i.e., the monolayer cell area was 0.0804 cm^2; CO represented the initial concentration of compound in donor compartment.
The efflux ratio was calculated using the following formula: […]
The percent recovery was calculated using the following formula:
[formula] [formula] • wherein, Vd represented the volume of donor compartment (0.1 mL on the apical side and 0.25 mL on the basolateral side); C and Cr represented the final concentrations of the transported compound in the donor and receptor compartment, respectively; Cc represented the compound concentration in cell lysate; Vc represented the volume of insert well (which was 0.1 mL in this experiment).

For the next series, the system named is NUGC-3 cells. Kind of series: NUGC-3 cell proliferation assay (CTG). The series is classed as cell-based, human. The conditions noted are these: for Compound GI50 (nM)/Reference compound GI50 (nM): multiple ratio of GI50 of the compound to the reference compound; for GI50: Homo sapiens, NUGC-3, 144 h, 6 days, CTG. Put shortly:
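GI50 derived by variable-slope regression of percent inhibition (normalized to blank and 0.1% DMSO controls) from CTG luminescence. Compound was given as 10 threefold dilutions, highest final 10 μM, to overnight-seeded NUGC-3 cells (250/well) for 6 days, 37° C, 5% CO2.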

On to `CNC(=O)c1ccc(NCC#Cc2nc3c(NC4CCC(N5CCOCC5)C[C@@H]4F)cccn3c2CC(F)(F)F)c(OC)c1` (stereo partly shown) [Compound 44], for which, at p53 Y220C [1], the EC50 is less than 0.1 µM. The “Compound EC50 (nM)/Reference compound EC50 (nM)” value (“Compound EC50” for short) at p53 Y220C [2] is listed as “B (B: EC50 of the reference compound<EC50 of the compound≤3.0*EC50 of the reference compound)”. For the same molecule, in series [3], the efflux ratio at 120 min, 10 μM stood at 1.79; the Papp A→B at 120 min, 10 μM was found to be 3.54 ×10⁻⁶ cm/s; the Papp B→A at 120 min, 10 μM is 6.34 ×10⁻⁶ cm/s. In addition, in the series on NUGC-3 cells, the “Compound GI50 (nM)/Reference compound GI50 (nM)” value (“Compound GI50” below) is given as “C (C: GI50 of the compound ≥ 3 * GI50 of the reference compound)”.
For `COc1cc(C(=O)N(C)C)ccc1NCC#Cc1nc2c(NC3CC[C@@H](N4CC5(COC5)C4)C[C@@H]3F)cccn2c1CC(F)(F)F` (stereo partly shown) [Compound 47], on p53 Y220C [2], the “Compound EC50” value is listed as “B (B: EC50 of the reference compound<EC50 of the compound≤3.0*EC50 of the reference compound)”. Besides, in series [3], the efflux ratio at 120 min, 10 μM is 1.52; the Papp A→B at 120 min, 10 μM is 3.97 ×10⁻⁶ cm/s; the Papp B→A at 120 min, 10 μM was 6.04 ×10⁻⁶ cm/s. Besides, the “Compound GI50” value in the series on NUGC-3 cells was “C (C: GI50 of the compound ≥ 3 * GI50 of the reference compound)”.
At p53 Y220C [1], `CCNC(=O)c1ccc(NCC#Cc2nc3c(N[C@@H]4CC[C@@H](N5CC6(COC6)C5)C[C@@H]4F)cccn3c2CC(F)(F)F)c(OC)c1` [Compound 50] yielded an EC50 of less than 0.1 µM. On p53 Y220C [2], the “Compound EC50” value is listed as “A (A: EC50 of the compound≤EC50 of the reference compound)”. Besides, in the series with NUGC-3 cells, the “Compound GI50” value is “C (C: GI50 of the compound ≥ 3 * GI50 of the reference compound)”.
`COc1cc(C(=O)N2CCC2)ccc1NCC#Cc1nc2c(N[C@@H]3CC[C@@H](N4CC5(COC5)C4)C[C@@H]3F)cccn2c1CC(F)(F)F` [Compound 51] returned an EC50 at p53 Y220C [1] of less than 0.1 µM. The “Compound EC50” value at p53 Y220C [2] is on record as “A (A: EC50 of the compound≤EC50 of the reference compound)”. Also, the “Compound GI50” value in the series with NUGC-3 cells was “C (C: GI50 of the compound ≥ 3 * GI50 of the reference compound)”.
The like results for `COCCNC(=O)c1ccc(NCC#Cc2nc3c(N[C@@H]4CC[C@@H](N5CC6(COC6)C5)C[C@@H]4F)cccn3c2CC(F)(F)F)c(OC)c1` [Compound 52] were, in that order, less than 0.1 µM, “A (A: EC50 of the compound≤EC50 of the reference compound)” and “C (C: GI50 of the compound ≥ 3 * GI50 of the reference compound)”.
For the molecule `[2H]C([2H])([2H])NC(=O)c1ccc(NCC#Cc2cc3c(NC4CCC(N5CC6(COC6)C5)CC4F)cccn3c2CC(F)(F)F)c(OC2CC2)c1` (stereo not shown) [Compound 76d], on p53 Y220C [1], the EC50 was less than 0.1 µM. In addition, at p53 Y220C [2], the “Compound EC50” value was “A (A: EC50 of the compound≤EC50 of the reference compound)”. In the series with NUGC-3 cells, the GI50 is less than 1 µM and the “Compound GI50” value is “A (A: GI50 of the compound ≤ GI50 of the reference compound)”.
The matching figures for `[2H]C([2H])([2H])NC(=O)c1ccc(NCC#Cc2cc3c(NC4CCC(N5CC6(COC6)C5)CC4F)cccn3c2CC(F)(F)F)c(OCF)c1` (stereo not shown) [Compound 78d]: less than 0.1 µM, “A (A: EC50 of the compound≤EC50 of the reference compound)”, less than 1 µM and “A (A: GI50 of the compound ≤ GI50 of the reference compound)”.
